Measurements reported in patent US6737383B1, “Herbicidal oxadiazolidines” (priority 1999, dated 2004).

What was measured:
soybean = experiment: Test B pre/postemergence soybean; type: in vivo, Glycine max; conditions: for Plant response rating, Soybean: Postemergence
Procedure, shortened: (§1)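 Response is a visual 0-to-10 score relative to untreated plants, where 0 means no effect and 10 means complete control, taken twelve to sixteen days after application. Treatments went onto soil at planting and onto foliage of 1- to 4-leaf plants, using a surfactant-containing non-phytotoxic solvent.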

purple nutsedge = experiment: Test B pre/postemergence purple nutsedge; type: in vivo, Cyperus rotundus
Procedure, shortened: as §1

wild oat = experiment: Test B pre/postemergence wild oat; type: in vivo, Avena fatua; conditions: for Plant response rating, Wild oats: Postemergence
Procedure, shortened: as §1

rape = experiment: Test B pre/postemergence rape; type: in vivo, Brassica napus
Procedure, shortened: as §1

corn = experiment: Test B pre/postemergence corn; type: in vivo, Zea mays
Procedure, shortened: as §1

cocklebur = experiment: Test B pre/postemergence cocklebur; type: in vivo, Xanthium strumarium
Procedure, shortened: as §1

blackgrass = experiment: Test B pre/postemergence blackgrass; type: in vivo, Alopecurus myosuroides
Procedure, shortened: as §1

crabgrass = experiment: Test B pre/postemergence crabgrass; type: in vivo, Digitaria sanguinalis
Procedure, shortened: as §1

velvetleaf = experiment: Test B pre/postemergence velvetleaf; type: in vivo, Abutilon theophrasti; conditions: for Plant response rating, Velvetleaf: Postemergence
Procedure, shortened: as §1

bedstraw = experiment: Test B pre/postemergence bedstraw; type: in vivo, Galium aparine; conditions: Preemergence
Procedure, shortened: as §1

sugar beet = experiment: Test B pre/postemergence sugar beet; type: in vivo, Beta vulgaris; conditions: for Plant response rating, Sugarbeets: Postemergence
Procedure, shortened: as §1

giant foxtail = experiment: Test B pre/postemergence giant foxtail; type: in vivo, Setaria faberii
Procedure, shortened: as §1

morningglory = experiment: Test B pre/postemergence morningglory; type: in vivo, Ipomoea hederacea
Procedure, shortened: as §1

surinam grass = experiment: Test B pre/postemergence surinam grass; type: in vivo, Brachiaria decumbens
Procedure, shortened: as §1

wheat = experiment: Test B pre/postemergence wheat; type: in vivo, Triticum aestivum; conditions: for Plant response rating, Wheat: Postemergence
Procedure, shortened: as §1

pigweed = experiment: Test B pre/postemergence pigweed; type: in vivo, Amaranthus retroflexus; conditions: for Plant response rating, Redroot pigweed: Postemergence
Procedure, shortened: as §1

[1] = Rate 500 g/ha, scale of 0 to 10 where 0 is no effect and 10 is complete control
[2] = Preemergence, Rate 62 g/ha, scale 0 to 10 (0 no effect, 10 complete control)
[3] = Preemergence, Rate 125 g/ha, scale 0 to 10, 0 is no effect, 10 is complete control
[4] = Preemergence, Rate 500 g/ha, scale of 0 to 10 where 0 is no effect and 10 is complete control
[5] = Rate 250 g/ha, scale of 0 to 10 where 0 is no effect and 10 is complete control
[6] = Postemergence, Rate 62 g/ha, scale of 0 to 10, 0 is no effect, 10 is complete control
[7] = Postemergence, Rate 125 g/ha, scale 0 to 10, 0 is no effect, 10 is complete control
[8] = Postemergence, Rate 500 g/ha, scale of 0 to 10 where 0 is no effect and 10 is complete control
[9] = Rate 250 g/ha, Postemergence, scale of 0 to 10 where 0 is no effect and 10 is complete control

CCN(CC)C(=O)Cn1c(=O)on(C(=O)N(c2ccccc2)C(C)C)c1=O [Compound 571]
Plant response rating, Soybean (soybean; [1]): 4
Soybean plant response rating (soybean; [2]): 0
Soybean plant response rating (soybean; [3]): 0
Soybean plant response rating (0 to 10 scale) (soybean; Preemergence, Rate 250 g/ha): 0
Soybean plant response rating (soybean; [4]): 3
Plant response rating, Soybean (soybean; [5]): 2
Nutsedge plant response rating (purple nutsedge; [6]): 0
Nutsedge plant response rating (purple nutsedge; [7]): 0
Plant response rating, Nutsedge (purple nutsedge; [8]): 0
Nutsedge plant response rating (purple nutsedge; [2]): 0
Nutsedge plant response rating (purple nutsedge; [3]): 0
Nutsedge plant response rating (0 to 10 scale) (purple nutsedge; Preemergence, Rate 250 g/ha): 0
Nutsedge plant response rating (purple nutsedge; [4]): 0
Plant response rating, Nutsedge (purple nutsedge; [9]): 0
Plant response rating, Wild oats (wild oat; [1]): 0
Wild oats plant response rating (wild oat; [2]): 0
Wild oats plant response rating (wild oat; [3]): 0
Wild oats plant response rating (0 to 10 scale) (wild oat; Preemergence, Rate 250 g/ha): 3
Wild oats plant response rating (wild oat; [4]): 7
Plant response rating, Wild oats (wild oat; [5]): 0
Rape plant response rating (rape; [6]): 0
Rape plant response rating (rape; [7]): 0
Plant response rating, Rape (rape; [8]): 0
Rape plant response rating (rape; [2]): 0
Rape plant response rating (rape; [3]): 0
Rape plant response rating (0 to 10 scale) (rape; Preemergence, Rate 250 g/ha): 0
Rape plant response rating (rape; [4]): 2
Plant response rating, Rape (rape; [9]): 0
Corn plant response rating (corn; [6]): 0
Corn plant response rating (corn; [7]): 0
Plant response rating, Corn (corn; [8]): 0
Corn plant response rating (corn; [2]): 0
Corn plant response rating (corn; [3]): 0
Corn plant response rating (0 to 10 scale) (corn; Preemergence, Rate 250 g/ha): 0
Corn plant response rating (corn; [4]): 0
Plant response rating, Corn (corn; [9]): 0
Cocklebur plant response rating (cocklebur; [6]): 0
Cocklebur plant response rating (cocklebur; [7]): 0
Plant response rating, Cocklebur (cocklebur; [8]): 0
Cocklebur plant response rating (cocklebur; [2]): 0
Cocklebur plant response rating (cocklebur; [3]): 0
Cocklebur plant response rating (0 to 10 scale) (cocklebur; Preemergence, Rate 250 g/ha): 0
Cocklebur plant response rating (cocklebur; [4]): 0
Plant response rating, Cocklebur (cocklebur; [9]): 0
Blackgrass plant response rating (blackgrass; [6]): 0
Blackgrass plant response rating (blackgrass; [7]): 0
Plant response rating, Blackgrass (blackgrass; [8]): 0
Blackgrass plant response rating (blackgrass; [2]): 0
Blackgrass plant response rating (blackgrass; [3]): 2
Blackgrass plant response rating (0 to 10 scale) (blackgrass; Preemergence, Rate 250 g/ha): 3
Blackgrass plant response rating (blackgrass; [4]): 9
Plant response rating, Blackgrass (blackgrass; [9]): 0
Crabgrass plant response rating (crabgrass; [6]): 0
Crabgrass plant response rating (crabgrass; [7]): 0
Plant response rating, Crabgrass (crabgrass; [8]): 3
Crabgrass plant response rating (crabgrass; [2]): 2
Crabgrass plant response rating (crabgrass; [3]): 2
Crabgrass plant response rating (0 to 10 scale) (crabgrass; Preemergence, Rate 250 g/ha): 3
Crabgrass plant response rating (crabgrass; [4]): 3
Plant response rating, Velvetleaf (velvetleaf; [1]): 0
Velvetleaf plant response rating (velvetleaf; [2]): 0
Velvetleaf plant response rating (velvetleaf; [3]): 0
Velvetleaf plant response rating (0 to 10 scale) (velvetleaf; Preemergence, Rate 250 g/ha): 0
Velvetleaf plant response rating (velvetleaf; [4]): 0
Plant response rating, Velvetleaf (velvetleaf; [5]): 0
Bedstraw plant response rating (bedstraw; Rate 62 g/ha, scale 0 to 10 (0 no effect, 10 complete control)): 0
Bedstraw plant response rating (bedstraw; Rate 125 g/ha, scale 0 to 10, 0 is no effect, 10 is complete control): 0
Bedstraw plant response rating (0 to 10 scale) (bedstraw; Rate 250 g/ha): 0
Bedstraw plant response rating (bedstraw; [1]): 0
Plant response rating, Sugarbeets (sugar beet; [1]): 0
Sugarbeets plant response rating (sugar beet; [2]): 0
Sugarbeets plant response rating (sugar beet; [3]): 0
Sugarbeets plant response rating (0 to 10 scale) (sugar beet; Preemergence, Rate 250 g/ha): 0
Sugarbeets plant response rating (sugar beet; [4]): 0
Plant response rating, Sugarbeets (sugar beet; [5]): 0
Giant foxtail plant response rating (giant foxtail; [6]): 0
Giant foxtail plant response rating (giant foxtail; [7]): 0
Plant response rating, Giant foxtail (giant foxtail; [8]): 3
Giant foxtail plant response rating (giant foxtail; [2]): 3
Giant foxtail plant response rating (giant foxtail; [3]): 3
Giant foxtail plant response rating (0 to 10 scale) (giant foxtail; Preemergence, Rate 250 g/ha): 9
Giant foxtail plant response rating (giant foxtail; [4]): 9
Plant response rating, Giant foxtail (giant foxtail; [9]): 2
Morningglory plant response rating (morningglory; [6]): 4
Morningglory plant response rating (morningglory; [7]): 10
Plant response rating, Morningglory (morningglory; [8]): 10
Morningglory plant response rating (morningglory; [2]): 0
Morningglory plant response rating (morningglory; [3]): 0
Morningglory plant response rating (0 to 10 scale) (morningglory; Preemergence, Rate 250 g/ha): 2
Morningglory plant response rating (morningglory; [4]): 4
Plant response rating, Morningglory (morningglory; [9]): 10
B. signalgrass plant response rating (surinam grass; [6]): 0
B. signalgrass plant response rating (surinam grass; [7]): 0
Plant response rating, B. signalgrass (surinam grass; [8]): 5
B. signalgrass plant response rating (surinam grass; [2]): 0
B. signalgrass plant response rating (surinam grass; [3]): 3
B. signalgrass plant response rating (0 to 10 scale, 0 is no effect, 10 is complete control) (surinam grass; Preemergence, Rate 250 g/ha): 3
B. signalgrass plant response rating (surinam grass; [4]): 9
Plant response rating, B. signalgrass (surinam grass; [9]): 0
Plant response rating, Wheat (wheat; [1]): 0
Wheat plant response rating (wheat; [2]): 0
Wheat plant response rating (wheat; [3]): 3
Wheat plant response rating (0 to 10 scale) (wheat; Preemergence, Rate 250 g/ha): 3
Wheat plant response rating (wheat; [4]): 9
Plant response rating, Wheat (wheat; [5]): 0
Plant response rating, Redroot pigweed (pigweed; [1]): 0
Redroot pigweed plant response rating (pigweed; [2]): 0
Redroot pigweed plant response rating (pigweed; [3]): 0
Redroot pigweed plant response rating (0 to 10 scale) (pigweed; Preemergence, Rate 250 g/ha): 9
Redroot pigweed plant response rating (pigweed; [4]): 9
Plant response rating, Redroot pigweed (pigweed; [5]): 0
